Laboratory results: patent US10034879B2, “Substituted benzaldehyde compounds and methods for their use in increasing tissue oxygenation” (Global Blood Therapeutics, Inc., priority 2011, dated 2018)
Values joined by “and” are separate entries in the source; they are usually repeats but may differ in a detail not shown here. Equal values may be shown once. Read-outs that look alike come from different tables or passages of the source.

What was measured:
HbS = biological target: T1, HbS (Homo sapiens, UniProt P68871+P69905, E7V); assay: Whole blood assay, oxygen equilibrium curves of whole blood from sickle cell patients; assay type: cell-based; details: hematocrit 20%, compound at 1000 μM
T1 construct: Oxygen Equilibrium Curves (OEC) of whole blood before and after treatment; endogenous in cells; host or cells: whole blood (red blood cells) of homozygous sickle cell patients
Procedure: Oxygen Equilibrium Curves (OEC) of whole blood before and after treatment with different concentrations of substituted benzaldehyde compounds were performed as follows using a HEMOX analyzer (TCS Scientific, New Hope, Pa.). Blood samples from homozygous sickle cell patients were obtained though the Hemoglobinopathy Center at Children's Hospital Oakland Research Institute (CHORI) with Institutional Review Board approval. The hematocrit was adjusted to 20% using autologous plasma and the blood samples were incubated for 1 hour at 37° C. in absence or presence of compounds. 100 μl of these samples were added to 5 mL of Hemox buffer (30 mM TES, 130 mM NaCl, 5 mM KCl, pH=7.4) at 37° C. and then transferred to the Hemox sample chamber. The samples were saturated with oxygen by flushing with compressed air for 10 minutes. The samples were then flushed with pure nitrogen and the respective absorbances of oxy- and deoxy-Hb are recorded as a function of the solution pO2. The oxygen equilibrium data were then fitted to the Hill Model to obtain values for p50. The deoxygenation curves for both whole blood alone (control) and whole blood in the presence of the compound were collected with the TCS software.
Table 5 below lists the delta p50% values where + indicates a delta p50% of between 0 and 29, ++ indicates a delta p50% of between 30 and 50, and +++ indicates a delta p50% of 50 or greater. The compounds in Table 2 were tested at 1000 μM.

[1] = Pharmacokinetic oral study in rat; assay type: in vivo, SD Rats; details: for AUClast ratio / Cmax ratio: PO, 100 mg/kg vs 44 mg/kg; for Cmax / Tmax: Sprague-Dawley
Procedure: (§1) Sprague Dawley rats were treated with 7.8 mg/Kg of Compound 43 dissolved in 10% DMA:[…]:16% ca vitron. At specified time points 10 uL of whole blood/plasma was removed from rats and treated with 490 ul pH 3 buffer+500 uL ACN/IS, then shaken for 1 hour, centrifuged for 10 minutes at […] at 4 C. The supernatant was transferred to a filter plate and centrifuged at 2000 rpm for 1 minute at 4 C. The samples were then analyzed by LC-MS/MS monitoring parent aldehyde.
SD Rats were treated by gavage with 44 mg/kg and 100 mg/kg dissolved in 10% DMA:90% PEG. At specified time points blood was taken and worked up as described above in the IV Study.

HbS/A = biological target: T2, HbS/A (Homo sapiens, UniProt P68871+P69905, E7V); assay: Relaxed-to-tense transition assay (R/T assay); assay type: biochemical; details: compound at 30 μm; 3 μM HbS/A
T2 construct: A mixture of HbS/A was purified from blood; from tissue; host or cells: blood of homozygous sickle cell patients
Procedure: A relaxed-to-tense transition assay (“R/T assay”) was used to determine the ability of substituted benzaldehyde compounds to maintain the high-oxygen affinity relaxed (R) state of hemoglobin under deoxygenated conditions. This ability can be expressed as a “delta R” value (i.e., the change in the time-period of the R state after hemoglobin is treated with a compound, as compared to the period without treatment with the compound). Delta R is the % R to remaining after the compounds treatment compared with no treatment (e.g. if R % without treatment is 8% while with treatment with a target compound is 48% R at 30 μM, then % R is 40% for that compound.
A mixture of HbS/A was purified from blood obtained from homozygous sickle cell patients though the Hemoglobinopathy Center at Children's Hospital Oakland Research Institute (CHORI) with Institutional Review Board approval. HbS/A (at a final concentration of 3 μM) was incubated for 1 hr at 37° C. in presence or absence of compounds in […] potassium phosphate buffer, pH=7.4 and 30 μM 2, 3 diphosphoglycerate (DPG) in 96 well plates in a final volume of 160 μl. Compounds were added at different concentrations (3 μM to 100 μM final concentrations). Plates were covered with a Mylar film. After incubation was completed the Mylar cover was removed and the plates were placed in a Spectrostar Nano plate reader previously heated at 37° C. Five minutes later, N2 (flow rate=20 L/min) was flowed through the spectrophotometer. Spectroscopic measurements (300 nm to 700 nm) were taken every 5 min for 2 hours. Data analysis was performed by using linear regression from the data retrieved for all wavelengths.
Table 4 below lists the delta R values where + indicates a delta R of between 0 and 30, ++ indicates a delta R of between 30 and 50, and +++ indicates a delta R of 50 or greater. Unless noted otherwise, the compounds in Table 2 were tested at 9 μM.

[2] = Pharmacokinetic I.V. study in rat; assay type: in vivo, Sprague Dawley rats; details: 7.8 mpk IV; for Vd: read-out: Vss; for half-life: read-out: t½ beta
Procedure: as §1

[3] = whole blood, PO 44 mg/kg, Blood
[4] = whole blood, PO 100 mg/kg, Blood
[5] = HCl salt, 0 min, animals A, B, C
[6] = HCl salt, 5 min, animals A, B, C, 7.8 mg/kg
[7] = HCl salt, 15 min, animals A, B, C, 7.8 mg/kg
[8] = HCl salt, 30 min, animals A, B, C, 7.8 mg/kg
[9] = HCl salt, 60 min, animals A, B, C, 7.8 mg/kg
[10] = HCl salt, 120 min, animals A, B, C, 7.8 mg/kg
[11] = HCl salt, 240 min, animals A, B, C, 7.8 mg/kg
[12] = HCl salt, 1440 min, animals A, B, C, 7.8 mg/kg
[13] = Sprague-Dawley, 7.8 mg/kg, Plasma
[14] = Sprague-Dawley, whole blood, 7.8 mg/kg, Blood

- AUClast ([1]; PO 44 mg/kg, Blood): 395638.27 µmol·min/L
- AUClast ([1]; PO 44 mg/kg, Plasma): 12517.54 µmol·min/L
- AUClast ([1]; PO 100 mg/kg, Blood): 1384101.11 µmol·min/L
- AUClast ([1]; PO 100 mg/kg, Plasma): 52836.17 µmol·min/L
- AUClast ratio ([1]; Blood): 3.50
- Cmax ratio ([1]; Blood): 2.88
- AUClast ratio ([1]; Plasma): 4.22
- Cmax ratio ([1]; Plasma): 3.01
- Cmax ([1]; PO 44 mg/kg, Plasma): 14.8 µM
- Tmax ([1]; PO 44 mg/kg, Plasma): 3.33 h
- Cmax ([1]; PO 100 mg/kg, Plasma): 44.5 µM
- Tmax ([1]; PO 100 mg/kg, Plasma): 11.3 h
- Cmax [1, 3]: 381 µM
- Tmax [1, 3]: 5.33 h
- Cmax [1, 4]: 1100 µM
- Tmax [1, 4]: 12 h
- AUClast ([2]; Blood): 215846.3 µmol·min/L
- blood conc [2, 5]: BLLOQ
- plasma conc [2, 5]: BLLOQ
- blood conc [2, 6]: 246 µM and 281 µM
- plasma conc [2, 6]: 8.68 µM and 7.44 µM
- blood conc [2, 7]: 341 µM and 285 µM
- plasma conc [2, 7]: 8.42 µM and 7.16 µM
- blood conc [2, 8]: 333 µM and 292 µM
- plasma conc [2, 8]: 7.1 µM
- blood conc [2, 9]: 203 µM and 285 µM
- plasma conc [2, 9]: 7.52 µM and 7.22 µM
- blood conc [2, 10]: 274 µM and 280 µM
- plasma conc [2, 10]: 6.02 µM and 5.22 µM
- blood conc [2, 11]: 225 µM and 259 µM
- plasma conc [2, 11]: 5.24 µM and 5.88 µM
- plasma conc ([2]; HCl salt, 480 min, animals A, B, C, 7.8 mg/kg): 2.66 µM and 3.15 µM
- blood conc [2, 12]: 85 µM and 70.8 µM
- plasma conc [2, 12]: 1.38 µM and 1.51 µM
- AUClast ([2]; Plasma): 4114.8 µmol·min/L
- clearance [2, 13]: 4.45 mL/min/kg
- Vd [2, 13]: 4.11 L/kg
- half-life [2, 13]: 10.3 h
- concentration at 5 min ([2]; Sprague-Dawley, plasma, iv, 7.8 mg/kg, HCl salt, 5 min, animals A, B, C, read-out: plasma conc): 7.56 µM
- concentration at 15 min ([2]; Sprague-Dawley, plasma, iv, 7.8 mg/kg, HCl salt, 15 min, animals A, B, C, read-out: plasma conc): 8.38 µM
- concentration at 30 min ([2]; Sprague-Dawley, plasma, iv, 7.8 mg/kg, HCl salt, 30 min, animals A, B, C, read-out: plasma conc): 8.66 µM
- concentration at 60 min ([2]; Sprague-Dawley, plasma, iv, 7.8 mg/kg, HCl salt, 60 min, animals A, B, C, read-out: plasma conc): 6.12 µM
- concentration at 120 min ([2]; Sprague-Dawley, plasma, iv, 7.8 mg/kg, HCl salt, 120 min, animals A, B, C, read-out: plasma conc): 3.92 µM
- concentration at 240 min ([2]; Sprague-Dawley, plasma, iv, 7.8 mg/kg, HCl salt, 240 min, animals A, B, C, read-out: plasma conc): 3.72 µM
- concentration at 480 min ([2]; Sprague-Dawley, plasma, iv, 7.8 mg/kg, HCl salt, 480 min, animals A, B, C, read-out: plasma conc): 2.06 µM
- concentration at 1440 min ([2]; Sprague-Dawley, plasma, iv, 7.8 mg/kg, HCl salt, 1440 min, animals A, B, C, read-out: plasma conc): 1.07 µM
- clearance [2, 14]: 0.08 mL/min/kg
- Vd [2, 14]: 0.09 L/kg
- half-life [2, 14]: 12.5 h
- concentration at 5 min ([2]; Sprague-Dawley, whole blood, iv, 7.8 mg/kg, HCl salt, 5 min, animals A, B, C, read-out: blood conc): 259 µM
- concentration at 15 min ([2]; Sprague-Dawley, whole blood, iv, 7.8 mg/kg, HCl salt, 15 min, animals A, B, C, read-out: blood conc): 287 µM
- concentration at 30 min ([2]; Sprague-Dawley, whole blood, iv, 7.8 mg/kg, HCl salt, 30 min, animals A, B, C, read-out: blood conc): 283 µM
- concentration at 60 min ([2]; Sprague-Dawley, whole blood, iv, 7.8 mg/kg, HCl salt, 60 min, animals A, B, C, read-out: blood conc): 256 µM
- concentration at 120 min ([2]; Sprague-Dawley, whole blood, iv, 7.8 mg/kg, HCl salt, 120 min, animals A, B, C, read-out: blood conc): 263 µM
- concentration at 240 min ([2]; Sprague-Dawley, whole blood, iv, 7.8 mg/kg, HCl salt, 240 min, animals A, B, C, read-out: blood conc): 248 µM
- concentration at 1440 min ([2]; Sprague-Dawley, whole blood, iv, 7.8 mg/kg, HCl salt, 1440 min, animals A, B, C, read-out: blood conc): 81.1 µM
Compound: CC(C)n1nccc1-c1ncccc1COc1cccc(O)c1C=O [Compound 43, 2-hydroxy-6-((2-(1-isopropyl-1H-pyrazol-5-yl)pyridin-3-yl)methoxy)benzaldehyde]
- delta p50% (HbS): +++ (+++ indicates a delta p50% of 50 or greater)
- delta R (%) (HbS/A): +++ (30 μm) (+++ indicates a delta R of 50 or greater)
